In patent US9469617B2, “Molecules having certain pesticidal utilities, and intermediates, compositions, and processes related thereto” (priority 2014, dated 2016):
Counter-ions that a name gives are not always drawn. Like-named read-outs stand apart in the source and are kept apart here.

What was measured:
Type in all cases: in vivo
[1] = tested on: Beet Armyworm (BAW) (Spodoptera exigua); assay: Bioassay on Beet Armyworm (BAW), 128-well diet tray assay; conditions: 168 h, read-out: BAW % Control (or Mortality) rating
In short: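 Artificial diet was surface-treated with 50 μg/cm^2 compound in 90:10 acetone-water and dried, then infested with one to five second-instar larvae per well. Trays were held 5–7 days at 25° C, 14:10 light-dark. Percent mortality was averaged over eight wells.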

[2] = tested on: Cabbage Looper (CL) (Trichoplusia ni); assay: Bioassay on Cabbage Looper (CL), 128-well diet tray assay; conditions: 168 h, read-out: CL % Control (or Mortality) rating
In short: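 Second-instar larvae (one to five per well) placed on artificial diet treated with 50 μg/cm^2 compound in 90:10 acetone-water, dried, eight wells per compound. Held at 25 °C, 14:10 light-dark for five to seven days; percent mortality per well, averaged over the eight wells.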

[3] = tested on: Yellow Fever Mosquito (YFM) (Aedes aegypti); assay: Bioassay on Yellow Fever Mosquito (YFM) larvae, 96-well plate; conditions: about 1 day-old larvae, master plate 4000 ppm in DMSO diluted, scored on mortality after 3 days
In short: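 Compounds from 4000 ppm DMSO master solutions, diluted in 90:10 water:acetone, dispensed into wells and infested with about 1-day-old larvae in liver-powder water. Held covered at room temperature for 3 days, then each well scored for mortality; 6 replicate plates per master.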

[4] = Table ABC, 50 μg/cm^2 on artificial diet, second instar larvae, five to seven days, 25° C.

Row | SMILES | mortality at 50 µg/cm2 [1] [%] | mortality at 50 µg/cm2 [2] [%] | YFM % Control (or Mortality) rating ([3]; Table ABCD) | mortality at 50 µg/cm2 [1, 4] [%] | mortality at 50 µg/cm2 [2, 4] [%] | YFM % Control (or Mortality) rating ([3]; Table ABC)
1 | NC1Cc2ccc(-c3ncn(-c4ccc(OC(F)(F)F)cc4)n3)cc2C1 (stereo not drawn) [C3, 5-(1-(4-(trifluoromethoxy)phenyl)-1H-1,2,4-triazol-3-yl)-2,3-dihydro-1H-inden-2-amine dihydrochloride] | 50 to 100 | 50 to 100 | A (80-100) |  |  | 
2 | Cc1ccc(C(C)C)c(N2C(=O)CS/C2=N\C(=O)NC2CCc3cc(-c4ncn(-c5ccc(OC(F)(F)F)cc5)n4)ccc3C2)c1 (stereo not drawn) [F17, (Z)-1-(3-(2-isopropyl-5-methylphenyl)-4-oxothiazolidin-2-ylidene)-3-(6-(1-(4-(trifluoromethoxy)phenyl)-1H-1,2,4-triazol-3-yl)-1,2,3,4-tetrahydronaphthalen-2-yl)urea] |  |  |  | 50 to 100 | 50 to 100 | A (80-100)
3 | Cc1ccc(C(C)C)c(NC(=S)NC(=O)NC2Cc3ccc(-c4ncn(-c5ccc(OC(F)(F)C(F)(F)F)cc5)n4)cc3C2)c1 (stereo not drawn) [F3, 1-[(2-isopropyl-5-methyl-phenyl)carbamothioyl]-3-[5-[1-[4-(1,1,2,2,2-pentafluoroethoxy)phenyl]-1,2,4-triazol-3-yl]indan-2-yl]urea] |  |  |  | 50 to 100 | 50 to 100 | A (80-100)
4 | COc1ccc(N2C(=O)CS/C2=N\C(=O)NC2CCc3cc(-c4ncn(-c5ccc(OC(F)(F)F)cc5)n4)ccc3C2)c(C)c1 (stereo not drawn) [P35, (Z)-1-(3-(4-methoxy-2-methylphenyl)-4-oxothiazolidin-2-ylidene)-3-(6-(1-(4-(trifluoromethoxy)phenyl)-1H-1,2,4-triazol-3-yl)-1,2,3,4-tetrahydronaphthalen-2-yl)urea] |  |  |  | 50 to 100 | 50 to 100 | A (80-100)
5 | CCc1ccc(C)cc1N1C(=O)CS/C1=N\C(=O)NC1Cc2ccc(-c3ncn(-c4ccc(OC(F)(F)F)cc4)n3)cc2C1 (stereo not drawn) [F9, (Z)-1-(3-(2-Ethyl-5-methylphenyl)-4-oxothiazolidin-2-ylidene)-3-(5-(1-(4-(trifluoromethoxy)phenyl)-1H-1,2,4-triazol-3-yl)-2,3-dihydro-1H-inden-2-yl)urea] |  |  |  | 50 to 100 | 50 to 100 | A (80-100)
6 | COc1ccc(C)cc1NC(=S)NC(=O)NC1CCc2cc(-c3ncn(-c4ccc(OC(F)(F)F)cc4)n3)ccc2C1 (stereo not drawn) [P31, 1-[(2-Methoxy-5-methyl-phenyl)carbamothioyl]-3-[6-[1-[4-(trifluoromethoxy)phenyl]-1,2,4-triazol-3-yl]tetralin-2-yl]urea] |  |  |  | 50 to 100 | 50 to 100 | A (80-100)
7 | Cc1ccc(C(C)C)c(NC(=S)NC(=O)NC2Cc3ccc(-c4ncn(-c5ccc(OC(F)(F)F)cc5)n4)cc3C2)c1 (stereo not drawn) [F1, 1-[(2-isopropyl-5-methyl-phenyl)carbamothioyl]-3-[5-[1-[4-(trifluoromethoxy)phenyl]-1,2,4-triazol-3-yl]indan-2-yl]urea] |  |  |  | 50 to 100 | 50 to 100 | A (80-100)
8 | Cc1ccc(C(C)C)c(NC(=S)NC(=O)NC2CCc3cc(-c4ncn(-c5ccc(OC(F)(F)F)cc5)n4)ccc3C2)c1 (stereo not drawn) [P21, 1-[(2-Isopropyl-5-methyl-phenyl)carbamothioyl]-3-[6-[1-[4-(trifluoromethoxy)phenyl]-1,2,4-triazol-3-yl]tetralin-2-yl]urea] |  |  |  | 50 to 100 | 50 to 100 | A (80-100)
9 | Cc1ccc(Cl)c(N2C(=O)CS/C2=N\C(=O)NC2CCc3cc(-c4ncn(-c5ccc(OC(F)(F)F)cc5)n4)ccc3C2)c1 (stereo not drawn) [P37, (Z)-1-(3-(2-Chloro-5-methylphenyl)-4-oxothiazolidin-2-ylidene)-3-(6-(1-(4-(trifluoromethoxy)phenyl)-1H-1,2,4-triazol-3-yl)-1,2,3,4-tetrahydronaphthalen-2-yl)urea] |  |  |  | 50 to 100 | 50 to 100 | D (No activity noticed in this bioassay)
10 | CC(C)c1ccc(Cl)cc1NC(=S)NC(=O)NC1CCc2cc(-c3ncn(-c4ccc(OC(F)(F)F)cc4)n3)ccc2C1 (stereo not drawn) [P26, 1-[(5-Chloro-2-isopropyl-phenyl)carbamothioyl]-3-[6-[1-[4-(trifluoromethoxy)phenyl]-1,2,4-triazol-3-yl]tetralin-2-yl]urea] |  |  |  | 50 to 100 | 50 to 100 | A (80-100)
11 | CC(C)c1ccccc1N1/C(=N/C(=O)NC2Cc3ccc(-c4ncn(-c5ccc(OC(F)(F)F)cc5)n4)cc3C2)SCC1C (stereo not drawn) [FA3, (Z)-1-(3-(2-isopropylphenyl)-4-methylthiazolidin-2-ylidene)-3-(5-(1-(4-(trifluoromethoxy)phenyl)-1H-1,2,4-triazol-3-yl)-2,3-dihydro-1H-inden-2-yl)urea] |  |  |  | 50 to 100 | 0 | B (More than 0-Less than 80)
12 | COc1ccc(NC(=S)NC(=O)NC2CCc3cc(-c4ncn(-c5ccc(OC(F)(F)F)cc5)n4)ccc3C2)c(C)c1 (stereo not drawn) [P28, 1-[(4-Methoxy-2-methyl-phenyl)carbamothioyl]-3-[6-[1-[4-(trifluoromethoxy)phenyl]-1,2,4-triazol-3-yl]tetralin-2-yl]urea] |  |  |  | 50 to 100 | 50 to 100 | A (80-100)
13 | O=C(NC(=S)Nc1ccccc1C1CC1)NC1Cc2ccc(-c3ncn(-c4ccc(OC(F)(F)F)cc4)n3)cc2C1 (stereo not drawn) [F11, 1-[(2-Cyclopropylphenyl)carbamothioyl]-3-[5-[1-[4-(trifluoromethoxy)phenyl]-1,2,4-triazol-3-yl]indan-2-yl]urea] |  |  |  | 50 to 100 | 50 to 100 | A (80-100)
14 | CC(C)c1ccccc1N1/C(=N/C(=O)NC2Cc3ccc(-c4ncn(-c5ccc(OC(F)(F)F)cc5)n4)cc3C2)SCCC1C (stereo not drawn) [FA6, (Z)-1-(3-(2-Isopropylphenyl)-4-methyl-1,3-thiazinan-2-ylidene)-3-(5-(1-(4-(trifluoromethoxy)phenyl)-1H-1,2,4-triazol-3-yl)-2,3-dihydro-1H-inden-2-yl)urea] |  |  |  | 50 to 100 | 50 to 100 | A (80-100)
